# Publication PMC4879640 (Frontiers in Microbiology, 2016)
# System: T1, H6-PnpA (PNP 4-monooxygenase)
# T1 construct: N-terminal His6 tag, pET-28a (NdeI-XhoI), E. coli Rosetta(DE3)pLysS; gene pnpA of the pnpABA1CDEF cluster (not pnpA1)
# Format: biochemical, Burkholderia sp. SJ98
# Conditions: read-out: apparent Km
smiles,measurement,value
Cc1cc(O)ccc1[N+](=O)[O-] [3-methyl-4-nitrophenol],Km,20.3 ± 2.54 µM
